biological target: T1, Nanoluciferase-BRD9 fusion protein (3×FLAG-NLuc-BRD9) in SYO-1 cells (Homo sapiens, UniProt Q9H8M2); assay: SYO1 BRD9 NanoLuc Degradation Assay; assay type: cell-based; details: Table 6C; SYO-1 cells expressing 3×FLAG-NLuc-BRD9, 6 hours incubation, 1 μM top dose; read-out: SYO1 BRD9-NanoLuc degradation IC50
T1 construct: expressed in transfected cells; host or cells: SYO-1
T1 sequence (Q9H8M2 1-597): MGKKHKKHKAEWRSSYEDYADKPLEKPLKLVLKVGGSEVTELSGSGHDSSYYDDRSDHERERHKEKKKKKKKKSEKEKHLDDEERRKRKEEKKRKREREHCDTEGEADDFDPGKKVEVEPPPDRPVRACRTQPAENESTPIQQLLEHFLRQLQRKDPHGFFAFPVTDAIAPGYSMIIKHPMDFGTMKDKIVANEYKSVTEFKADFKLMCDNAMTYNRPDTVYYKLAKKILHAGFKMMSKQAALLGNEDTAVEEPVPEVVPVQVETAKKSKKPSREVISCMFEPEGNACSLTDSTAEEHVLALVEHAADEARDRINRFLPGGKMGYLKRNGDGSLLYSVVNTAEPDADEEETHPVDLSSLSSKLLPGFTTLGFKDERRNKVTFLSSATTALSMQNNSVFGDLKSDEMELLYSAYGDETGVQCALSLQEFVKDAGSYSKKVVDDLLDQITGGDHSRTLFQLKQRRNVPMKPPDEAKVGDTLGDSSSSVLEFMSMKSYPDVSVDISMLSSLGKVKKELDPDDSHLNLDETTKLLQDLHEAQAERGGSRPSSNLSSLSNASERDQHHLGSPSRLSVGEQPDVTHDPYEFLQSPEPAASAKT
In short: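 Stable 3×FLAG-NLuc-BRD9 SYO-1 line, 8000 cells/well, dosed day 1 with 10-point 3-fold dilutions (1 μM final top, duplicates) for 6 h. NanoLuc bioluminescence read with Nano-Glo; % inhibition relative to DMSO (high) and 1 μM reference BRD9 degrader (low) controls.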

`COc1cc(-c2cn(C)c(=O)c3cnc(N4CCC4)cc23)cc(OC)c1CN1CC(CN2CCC3(CC2)CN(c2ccc4c(c2)C(=O)N(C2CCC(=O)N(C)C2=O)C4)C3)C1` (centres unmarked) [Compound D259] and `COc1cc(-c2cn(C)c(=O)c3cnc(N4CC(F)(F)C4)cc23)cc(OC)c1CN1CCC(CN2CCC3(CC2)CN(c2ccc4c(c2)C(=O)N(C2CCC(=O)N(C)C2=O)C4)C3)CC1` (centres unmarked) [Compound D261] cannot be ordered by DC50: at least 1 µM for the first, at least 1 µM for the second.

`COc1cc2c(-c3cc(OC)c(CN4CCN(c5ccc6c(c5)C(=O)N(C5CCC(=O)NC5=O)C6)CC4(C)C)c(OC)c3)cn(C)c(=O)c2cn1` (centres unmarked) [Compound D260] and `COc1cc(-c2cn(C)c(=O)c3cnc(N4CCC4)cc23)cc(OC)c1CN1CCN(c2ccc3c(c2)C(=O)N(C2CCC(=O)NC2=O)C3)CC1(C)C` (centres unmarked) [Compound D290] cannot be ordered by DC50: under 0.01 µM for the first, under 0.01 µM for the second.

`CN(C)c1cc2c(-c3ccc(N(C)C4CCN(c5ccc6c(c5)C(=O)N(C5CCC(=O)NC5=O)C6)CC4)cc3)cn(C)c(=O)c2cn1` (centres unmarked) [Compound D262] and `COc1cc(N(C)C2CCN(c3ccc4c(c3)C(=O)N(C3CCC(=O)NC3=O)C4)CC2)c(OC)cc1-c1cn(C)c(=O)c2cnc(N(C)C)cc12` (centres unmarked) [Compound D279] cannot be ordered by DC50: under 0.01 µM for the first, under 0.01 µM for the second.

`COc1cc(-c2cn(C)c(=O)c3cnc(C4CC4)cc23)cc(OC)c1CN1CC(C#Cc2ccc3c(c2)C(=O)N(C2CCC(=O)NC2=O)C3)C1` (centres unmarked) [Compound D263] and `COc1cc(-c2cn(C)c(=O)c3cnc(C4CC4)cc23)cc(OC)c1CN1CC(C#Cc2ccc3c(c2)CN(C2CCC(=O)NC2=O)C3=O)C1` (centres unmarked) [Compound D271] cannot be ordered by DC50: under 0.01 µM for the first, under 0.01 µM for the second.

`CCc1cc(-c2cn(C)c(=O)c3cnc(N4CCC4)cc23)cc(OC)c1CN1CCC2(CC1)CN(c1ccc3c(c1)C(=O)N(C1CCC(=O)NC1=O)C3)C2` (centres unmarked) [Compound D264] and `COc1cc(-c2cn(C)c(=O)c3cnc(N4CC(F)(F)C4)cc23)cc(OC)c1CN1CCC(CN2CCC3(CC2)CN(c2ccc4c(c2)C(=O)N(C2CCC(=O)NC2=O)C4)C3)CC1` (centres unmarked) [Compound D291] cannot be ordered by DC50: under 0.01 µM for the first, under 0.01 µM for the second.

`COc1cc(-c2cn(C)c(=O)c3cnc(N(C)C)cc23)cc(OC)c1C1CCN(c2ccc3c(c2)C(=O)N(C2CCC(=O)NC2=O)C3)CC1` (centres unmarked) [Compound D265] and `COc1cc2c(-c3cc(OC)c(C4CCN(c5ccc6c(c5)C(=O)N(C5CCC(=O)NC5=O)C6)CC4)c(OC)c3)cn(C)c(=O)c2cn1` (centres unmarked) [Compound D295] cannot be ordered by DC50: under 0.01 µM for the first, under 0.01 µM for the second.

`COc1cc(-c2cn(C)c(=O)c3cnc(N(C)C)cc23)cc(OC)c1CN1CC(C#Cc2ccc3c(c2)C(=O)N(C2CCC(=O)NC2=O)C3)C1` (centres unmarked) [Compound D267] and `COc1cc(-c2cn(C)c(=O)c3cnc(N(C)C)cc23)cc(OC)c1CN1CCC(c2ccc3c(c2)C(=O)N(C2CCC(=O)NC2=O)C3)CC1` (centres unmarked) [Compound D296] cannot be ordered by DC50: under 0.01 µM for the first, under 0.01 µM for the second.

`COc1cc(-c2cn(C)c(=O)c3cnc(N(C)C)cc23)cc(OC)c1CN1CC(N(C)c2ccc3c(c2)C(=O)N(C2CCC(=O)NC2=O)C3=O)C1` (centres unmarked) [Compound D268] and `COc1cc(-c2cn(C)c(=O)c3cnc(N(C)C)cc23)cc(OC)c1CN1CCC(C#Cc2ccc3c(c2)C(=O)N(C2CCC(=O)NC2=O)C3=O)CC1` (centres unmarked) [Compound D273] cannot be ordered by DC50: under 0.01 µM for the first, under 0.01 µM for the second.

`COc1cc(-c2cn(C)c(=O)c3cnc(C4CC4)cc23)cc(OC)c1CN1CCC(C#Cc2ccc3c(c2)C(=O)N(C2CCC(=O)NC2=O)C3)CC1` (centres unmarked) [Compound D269] and `COc1cc(-c2cn(C)c(=O)c3cnc(C4CC4)cc23)cc(OC)c1CN1CCC(C#Cc2ccc3c(c2)C(=O)N(C2CCC(=O)NC2=O)C3=O)CC1` (centres unmarked) [Compound D272] cannot be ordered by DC50: under 0.01 µM for the first, under 0.01 µM for the second.

First: COc1cc(-c2cn(C)c(=O)c3cnc(N(C)C)cc23)cc(OC)c1CN1CCN(c2cnn(C3CCC(=O)NC3=O)c2)CC1 (centres unmarked) [Compound D270]
Second: COc1cc(-c2cn(C)c(=O)c3cnc(N(C)C)cc23)cc(OC)c1CN1CCC(c2ccc3c(c2)CN(C2CCC(=O)NC2=O)C3=O)CC1 (centres unmarked) [Compound D297]
The DC50 of the first is higher: 0.01 to 0.1 µM for the first, under 0.01 µM for the second.

`COc1cc(-c2cn(C)c(=O)c3cnc(N(C)C)cc23)cc(OC)c1-c1ccc2c(c1)C(=O)N(C1CCC(=O)NC1=O)C2` (centres unmarked) [Compound D274] and `COc1cc(-c2cn(C)c(=O)c3cnc(N(C)C)cc23)cc(OC)c1CN(C)c1ccc2c(c1)CN(C1CCC(=O)NC1=O)C2=O` (centres unmarked) [Compound D277] cannot be ordered by DC50: under 0.01 µM for the first, under 0.01 µM for the second.

`COc1cc(-c2cn(C)c(=O)c3cnc(C4CC4)cc23)cc(OC)c1CN1CC(C#Cc2ccc3c(c2)C(=O)N(C2CCC(=O)NC2=O)C3=O)C1` (centres unmarked) [Compound D275] and `COc1cc(-c2cn(C)c(=O)c3cnc(C4CC4)cc23)cc(OC)c1CN1CCN(CCC2CCN(c3ccc4c(c3)C(=O)N(C3CCC(=O)NC3=O)C4=O)CC2)CC1` (centres unmarked) [Compound D299] cannot be ordered by DC50: under 0.01 µM for the first, under 0.01 µM for the second.

`[2H]C([2H])([2H])n1cc(-c2cc(OC)c(CN3[C@H](C)CN(c4ccc5c(c4)C(=O)N(C4CCC(=O)NC4=O)C5)C[C@H]3C)c(OC)c2)c2cc(N(C)C)ncc2c1=O` (some centres unmarked) [Compound D276] and `COc1cc2c(-c3cc(OC)c(CN4[C@H](C)CN(c5ccc6c(c5)C(=O)N(C5CCC(=O)NC5=O)C6)C[C@H]4C)c(OC)c3)cn(C)c(=O)c2cn1` (some centres unmarked) [Compound D281] cannot be ordered by DC50: under 0.01 µM for the first, under 0.01 µM for the second.

`COc1cc(-c2cn(C)c(=O)c3cnc(N4CC(F)(F)C4)cc23)cc(OC)c1CN1CCN(c2ccc3c(c2)C(=O)N(C2CCC(=O)NC2=O)C3)CC1(C)C` (centres unmarked) [Compound D278] and `COc1cc2c(-c3cc(OC)c(CN4CCN(c5ccc6c(c5)C(=O)N(C5CCC(=O)NC5=O)C6)CC4C)c(OC)c3)cn(C)c(=O)c2cn1` (centres unmarked) [Compound D293] cannot be ordered by DC50: under 0.01 µM for the first, under 0.01 µM for the second.

`COc1cc(-c2cn(C)c(=O)c3cnc(N(C)C)cc23)cc(OC)c1CC1CCN(c2ccc3c(c2)C(=O)N(C2CCC(=O)NC2=O)C3)CC1` (centres unmarked) [Compound D280] and `COc1cc(-c2cn(C)c(=O)c3cnc(N4CCC4)cc23)cc(OC)c1C1CCN(c2ccc3c(c2)C(=O)N(C2CCC(=O)NC2=O)C3)CC1` (centres unmarked) [Compound D294] cannot be ordered by DC50: under 0.01 µM for the first, under 0.01 µM for the second.

Compared with `COc1cc2c(-c3cc(OC)c(CN4CCN(c5cccc(OC6CCC(=O)NC6=O)c5)CC4)c(OC)c3)cn(C)c(=O)c2cn1` (centres unmarked) [Compound D282], `COc1cc2c(-c3cc(OC)c(CN4CCC(c5ccc6c(c5)C(=O)N(C5CCC(=O)NC5=O)C6)CC4)c(OC)c3)cn(C)c(=O)c2cn1` (centres unmarked) [Compound D288] is lower in DC50: 0.01 to 0.1 µM for the first, under 0.01 µM for the second.

First: COc1cc(-c2nn(C)c(=O)c3cnc(N4CCC4)cc23)cc(OC)c1CN1CCC(CN2CCC3(CC2)CC(Oc2ccc4c(c2)C(=O)N(C2CCC(=O)NC2=O)C4)C3)CC1 (centres unmarked) [Compound D283]
Second: COc1cc(-c2cn(C)c(=O)c3cnc(N4CCC4)nc23)cc(OC)c1CN1CCC(CN2CCC3(CC2)CC(Oc2ccc4c(c2)C(=O)N(C2CCC(=O)NC2=O)C4)C3)CC1 (centres unmarked) [Compound D286]
The DC50 of the first is higher: 0.1 to 1 µM for the first, under 0.01 µM for the second.

Going from `COc1cc(-c2cn(C)c(=O)c3ccc(N(C)C)cc23)cc(OC)c1CN1CC(CN2CCC3(CC2)CN(c2ccc4c(c2)C(=O)N(C2CCC(=O)NC2=O)C4)C3)C1` (centres unmarked) [Compound D285] to `COc1cc2c(-c3cc(OC)c(CN4CCC(CN5CCC6(CC5)CN(c5ccc7c(c5)C(=O)N(C5CCC(=O)NC5=O)C7)C6)CC4)c(OC)c3)cn(C)c(=O)c2cn1` (centres unmarked) [Compound D289], the DC50 falls from at least 1 µM to under 0.01 µM.

`COc1cc(-c2cn(C)c(=O)c3cc(F)ccc23)cc(OC)c1CN1CCC(CN2CCC3(CC2)CC(Oc2ccc4c(c2)C(=O)N(C2CCC(=O)NC2=O)C4)C3)CC1` (centres unmarked) [Compound D287] and `COc1cc(-c2cn(C)c(=O)c3cnc(N(C)C)cc23)cc(OC)c1CCN1CCC(CN2CCC3(CC2)CC(Oc2ccc4c(c2)C(=O)N(C2CCC(=O)NC2=O)C4)C3)CC1` (centres unmarked) [Compound D298] cannot be ordered by DC50: under 0.01 µM for the first, under 0.01 µM for the second.

Source: patent US12391686B2, “Compounds and uses thereof” (Foghorn Therapeutics Inc., priority 2019, dated 2025)
